{"source": "patent US20080033018A1", "about": "“Therapeutic Agents For Overactive Bladder” (Chugai Seiyaku Kabushiki Kaisha, priority 2004, published 2008)", "key": {"nNOS-Knockout mice [1]": {"tested_on": "nNOS-Knockout mice", "assay": "Urination dynamics (urination frequency, urination volume) in nNOS-Knockout mice, observation system for urination behavior", "assay_type": "in vivo", "text": "There has been established no animal models of disease reflecting frequent urination in elderly male subjects. In carefully searching various kinds of information, nNOS-Knockout mice were pointed out to have a possibility as a model of frequent urination (dilatation of urinary bladder, hyperplasia of smooth muscle, lack of relaxation responses, see Non-patent Document 9 for its creation) in May, 1997 (Non-patent Document 10), but have not been studied as a therapeutic model. nNOS-Knockout mice have now been investigated for their possibility as a model of frequent urination by using an instrument (an observation system for urination behavior, Muromachi Kikai Co., Ltd., Japan) to determine urination dynamics (urination volume and urination frequency) of the mice. […]\nNicorandil was given to nNOS-Knockout mice (8-13 months of age) by forced oral administration at 6 mg/kg/day for 7 days using a sound for oral administration. […]\nThe daily urination frequency was measured with an observation system for urination behavior (Muromachi Kikai Co., Ltd., Japan). […]\nFurthermore, with the aim of clarifying the contribution of the nicorandil's nitrate-like action, pinacidil (SIGMA) known as a pure and potent KATP channel opener was also used for comparison of the urination frequency (FIG. 2)."}, "[2]": {"tested_on": "urethral obstruction rats", "assay": "Urination frequency after water loading in rat urethral obstruction model", "assay_type": "in vivo", "conditions": "over 210 minutes", "text": "As described above, there are many causes that induce frequent urination, and dysuria-induced frequent urination is also known. A rat animal model of urethral obstruction has been reported as a model for efficacy verification of many ameliorating agents for frequent urination (Non-patent Documents 17 and 18). In this example, a midline incision was made in the lower quadrant of each rat (9 weeks of age) under pentobarbital anesthesia, and the proximal urethra was ligatured together with a stainless rod (φ1 mm) by using a 3-0 silk suture, followed by pulling out the rod to create a urethral obstruction model. At 45 days after urethral obstruction, the rats were subjected to water loading (30 ml/kg, po; “water loading” as used herein refers to forced oral administration of distilled water using a sound) and observed for their urination frequency over 210 minutes, such that animals having a urination frequency greater than that of normal animals (5 times) were selected as animals with frequent urination. These animals were administered orally with nicorandil (1 mg/kg) or KRN2391 (1 mg/kg) (dissolved in distilled water for water loading) and then observed for their urination frequency over 210 minutes (n=5 for each group)."}, "KATP channel": {"tested_on": "KATP channel", "conditions": "report, Non-patent Document 7; cited from earlier work"}, "[3]": {"tested_on": "non-anesthetized conscious rats", "assay": "Hypotensive effect (blood pressure) in non-anesthetized conscious rats after oral administration", "assay_type": "in vivo, rat", "conditions": "compared at a dosage causing a 20 mmHg reduction in blood pressure, FIG. 4", "quoted_text": "In view of this fact, to study a hypotensive effect regarded as a side effect in the amelioration of frequent urination, both drugs were compared for their effect on blood pressure when orally administrated to non-anesthetized conscious rats (“non-anesthetized conscious rat” as used herein refers to an animal pre-treated such that a catheter for blood pressure measurement is inserted and placed in its femoral artery under anesthesia to ensure blood pressure monitoring, which animal is used on the following day after the anesthesia wears off). […] The measurement of blood pressure was performed as follows: the catheter for blood pressure measurement was connected to a blood pressure transducer (Nihon Kohden Corporation, Japan) and input into a polygraph (Nihon Kohden Corporation, Japan)."}, "nNOS-Knockout mice [4]": {"tested_on": "nNOS-Knockout mice", "assay": "Daily urination volume in nNOS-Knockout mice (oliguria)", "assay_type": "in vivo", "conditions": "nNOS-Knockout mice 12-16 weeks, 1 mg/kg, 24 hours after administration, p<0.05"}, "[5]": {"tested_on": "urethral obstruction rats", "conditions": "rat, in vivo, po, 1 mg/kg", "method": "“Urinary retention” as used herein refers to a state where the urination volume is 3 hr=0.\nRats at 45 days after urethral obstruction (φ1 mm, urethra was obstructed in rats at 9 weeks of age) were administered orally with nicorandil (3 mg/kg) or KRN2391 (1 mg/kg), subjected to water loading (30 ml/kg, po) and then monitored for their urination volume over 180 minutes (n=10 for each group)."}, "[6]": {"conditions": "Enarmon-depot 3.6 mg/kg/day, sc, 7 days, n=5, vs control group (n=8), p<0.05"}}, "data": [{"smiles": "CC(N/C(=N\\C#N)Nc1ccncc1)C(C)(C)C", "note": "(stereo not shown) [pinacidil]", "values": [{"measurement": "urination frequency", "setting": "nNOS-Knockout mice [1]; oral 0.3 mg/kg (dose strongly affecting the mouse cardiovascular system), FIG. 2", "value": "no significant decrease"}]}, {"smiles": "CCCCCCC(=O)O[C@H]1CC[C@H]2[C@@H]3CCC4=CC(=O)CC[C@]4(C)[C@H]3CC[C@]12C", "note": "[testosterone, testosterone enanthate]", "values": [{"measurement": "daily urination volume", "setting": "nNOS-Knockout mice [1]; Enarmon-depot 3.6 mg/kg/day, sc, 7 days, n=5, vs control group (n=8)", "value": "no change"}, {"measurement": "single urination volume", "setting": "nNOS-Knockout mice [1]; [6]", "value": "significant increase"}, {"measurement": "urination frequency", "setting": "nNOS-Knockout mice [1]; [6]", "value": "significant decrease"}]}, {"smiles": "N#CNC(=NCCO[N+](=O)[O-])c1cccnc1", "note": "[KRN2391]", "values": [{"measurement": "reduction of urination frequency", "setting": "[2]; 1 mg/kg po, vs before administration", "value": 34.3, "unit": "%"}, {"measurement": "urination frequency after administration", "setting": "[2]; 45 days after obstruction, 1 mg/kg po with water loading 30 ml/kg, n=5, p<0.05", "value": "2.4±0.8", "unit": "times/210 minutes"}, {"measurement": "effect on daily urination frequency (ameliorating effect on urination)", "setting": "nNOS-Knockout mice [1]; 1 mg/kg, p<0.05, FIG. 2", "value": "significant ameliorating effect"}, {"measurement": "hypotensive effect due to KATP channel opening action, stronger than that of nicorandil", "setting": "KATP channel", "value": 25, "unit": "fold"}, {"measurement": "amount producing hypotensive effect, smaller than nicorandil", "setting": "[3]", "value": 10, "unit": "fold"}, {"measurement": "effect on daily urination volume", "setting": "nNOS-Knockout mice [4]", "value": "significant inhibitory effect"}, {"measurement": "number of animals without urination", "setting": "[5]", "value": 5, "unit": "animals"}, {"measurement": "urinary retention", "setting": "[5]", "value": "a state of urinary retention was observed"}, {"measurement": "urination volume", "setting": "[5]", "value": "0.50 ± 0.30", "unit": "mL"}]}]}
